Target: T1, hSTING (Homo sapiens, UniProt Q86WV6, G230A/H232R/R293Q/R71H)
T1 construct: host or cells: THP1-Dual KO-IFNAR2 cells
Experiment: STING reporter assay in THP1-Dual KO-IFNAR2 cells (2'3'cGAMP stimulation, luciferase reporter)
Assay type: cell-based
Conditions: 15 μM 2'3'cGAMP, 24 h
Procedure: STING pathway activation by the compounds described herein was measured using THP1-Dual™ cells (KO-IFNAR2).
THP1-Dual™ KO-IFNAR2 Cells (obtained from invivogen) were maintained in RPMI, 10% FCS, 5 ml P/S, 2 mM L-glut, 10 mM Hepes, and 1 mM sodium pyruvate. Compounds were spotted in empty 384 well tissue culture plates (Greiner 781182) by Echo for a final concentration of 0.0017-100 μM. Cells were plated into the TC plates at 40 μL per well, 2×10E6 cells/mL. For activation with STING ligand, 2′3′cGAMP (MW 718.38, obtained from Invivogen), was prepared in Optimem media.
The following solutions were prepared for each 1×384 plate: • Solution A: 2 mL Optimem with one of the following stimuli: • 60 μL of 10 mM 2′3′cGAMP→150 μM stock • Solution B: 2 mL Optimem with 60 μL Lipofectamine 2000→Incubate 5 min at RT
2 mL of solution A and 2 ml Solution B was mixed and incubated for 20 min at room temperature (RT). 20 μL of transfection solution (A+B) was added on top of the plated cells, with a final 2′3′cGAMP concentration of 15 μM. The plates were then centrifuged immediately at 340 g for 1 minute, after which they were incubated at 37° C., 5% CO2, >98% humidity for 24 h. Luciferase reporter activity was then measured. EC50 values were calculated by using standard methods known in the art.
Luciferase reporter assay: 10 μL of supernatant from the assay was transferred to white 384-plate with flat bottom and squared wells. One pouch of QUANTI-Luc™ Plus was dissolved in 25 mL of water. 100 μL of QLC Stabilizer per 25 mL of QUANTI-Luc™ Plus solution was added. 50 μL of QUANTI-Luc™ Plus/QLC solution per well was then added. Luminescence was measured on a Platereader (e.g., Spectramax I3X (Molecular Devices GF3637001)).
Luciferase reporter activity was then measured. EC50 values were calculated by using standard methods known in the art.

T1 sequence (Q86WV6 whole entry R71H/G230A/H232R/R293Q): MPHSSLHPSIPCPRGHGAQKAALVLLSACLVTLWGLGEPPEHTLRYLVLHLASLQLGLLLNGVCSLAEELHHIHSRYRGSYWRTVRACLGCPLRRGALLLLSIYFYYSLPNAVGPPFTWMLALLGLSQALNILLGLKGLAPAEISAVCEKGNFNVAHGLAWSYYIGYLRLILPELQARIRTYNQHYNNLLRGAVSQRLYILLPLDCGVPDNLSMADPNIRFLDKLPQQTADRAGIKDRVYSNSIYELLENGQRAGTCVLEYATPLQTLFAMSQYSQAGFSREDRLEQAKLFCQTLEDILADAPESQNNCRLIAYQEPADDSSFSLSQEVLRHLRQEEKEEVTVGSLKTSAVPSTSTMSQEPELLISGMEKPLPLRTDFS

| SMILES | EC50 (class symbols) | EC50 (numeric bound) |
| --- | --- | --- |
| N#Cc1cc(Nc2ccc3c(c2)CC(=O)N3)cc(Nc2ccc3cc[nH]c3c2)n1 [Compound 101, 6-[(1H-indol-6-yl)amino]-4-[(2-oxo-2,3-dihydro-1H-indol-5-yl)amino]pyridine-2-carbonitrile] | 5 to 100 µM | – |
| Cc1ccc(Nc2cc(C#N)nc(Nc3ccc4cc[nH]c4c3)c2)cn1 [Compound 102, 6-[(1H-indol-6-yl)amino]-4-[(6-methylpyridin-3-yl)amino]pyridine-2-carbonitrile] | – | > 30 µM |
| N#Cc1cc(Nc2ccc(C(F)(F)F)c(F)c2)cc(Nc2ccc3cc[nH]c3c2)n1 [Compound 104, 4-{[3-fluoro-4-(trifluoromethyl)phenyl]amino}-6-[(1H-indol-6-yl)amino]pyridine-2-carbonitrile] | 0.2 to 1 µM | – |
| Cc1nc2ccc(Nc3cc(C#N)nc(Nc4ccc5cc[nH]c5c4)c3)cc2s1 [Compound 105, 6-[(1H-indol-6-yl)amino]-4-[(2-methyl-1,3-benzothiazol-6-yl)amino]pyridine-2-carbonitrile] | 1 to 5 µM | – |
| Cc1nc2cc(Nc3cc(C#N)nc(Nc4ccc5cc[nH]c5c4)c3)ccc2s1 [Compound 107, 6-[(1H-indol-6-yl)amino]-4-[(2-methyl-1,3-benzothiazol-5-yl)amino]pyridine-2-carbonitrile] | 1 to 5 µM | – |
| Cc1nn(C)c2ccc(Nc3cc(C#N)nc(Nc4ccc5cc[nH]c5c4)c3)cc12 [Compound 108, 4-[(1,3-dimethyl-1H-indazol-5-yl)amino]-6-[(1H-indol-6-yl)amino]pyridine-2-carbonitrile] | 1 to 5 µM | – |
| N#Cc1cc(Nc2cncc(Cl)c2)cc(Nc2ccc3cc[nH]c3c2)n1 [Compound 109, 4-[(5-chloropyridin-3-yl)amino]-6-[(1H-indol-6-yl)amino]pyridine-2-carbonitrile] | 1 to 5 µM | – |
| N#Cc1cc(Nc2cc(F)cc(C(F)(F)F)c2)cc(Nc2ccc3cc[nH]c3c2)n1 [Compound 110, 4-{[3-fluoro-5-(trifluoromethyl)phenyl]amino} 6-[(1H-indol-6-yl)amino]pyridine-2-carbonitrile] | 0.2 to 1 µM | – |
| COc1cc(Cl)cc(Nc2cc(C#N)nc(Nc3ccc4cc[nH]c4c3)c2)c1 [Compound 112, 4-[(3-chloro-5-methoxyphenyl)amino]-6-[(1H-indol-6-yl)amino]pyridine-2-carbonitrile] | 0.2 to 1 µM | – |
| CC(C)(C)c1cncc(Nc2cc(C#N)nc(Nc3ccc4cc[nH]c4c3)c2)c1 [Compound 115, 4-[(5-tert-butylpyridin-3-yl)amino]-6-[(1H-indol-6-yl)amino]pyridine-2-carbonitrile] | 1 to 5 µM | – |
| N#Cc1cc(Nc2ccc(F)c(F)c2)cc(Nc2ccc3cc[nH]c3c2)n1 [Compound 116, 4-[(3,4-difluorophenyl)amino]-6-[(1H-indol-6-yl)amino]pyridine-2-carbonitrile] | 0.2 to 1 µM | – |
| N#Cc1cc(Nc2ccc3c(c2)OC(F)(F)O3)cc(Nc2ccc3cc[nH]c3c2)n1 [Compound 117, 4-[(2,2-difluoro-2H-1,3-benzodioxol-5-yl)amino]-6-[(1H-indol-6-yl)amino]pyridine-2-carbonitrile] | 0.2 to 1 µM | – |
| CC1(C)C(=O)Nc2cc(Nc3cc(C#N)nc(Nc4ccc5cc[nH]c5c4)c3)ccc21 [Compound 122, 4-[(3,3-dimethyl-2-oxo-2,3-dihydro-1H-indol-6-yl)amino]-6-[(1H-indol-6-yl)amino]pyridine-2-carbonitrile] | 1 to 5 µM | – |
| N#Cc1cc(Nc2ccc3c(c2)C(=O)NC3)cc(Nc2ccc3cc[nH]c3c2)n1 [Compound 123, 6-[(1H-indol-6-yl)amino]-4-[(3-oxo-2,3-dihydro-1H-isoindol-5-yl)amino]pyridine-2-carbonitrile] | 5 to 100 µM | – |
| N#Cc1cc(Nc2ccc(OC(F)(F)F)nc2)cc(Nc2ccc3cc[nH]c3c2)n1 [Compound 125, 6-[(1H-indol-6-yl)amino]-4-{[6-(trifluoromethoxy)pyridin-3-yl]amino}pyridine-2-carbonitrile] | 0.2 to 1 µM | – |
| N#Cc1cc(Nc2ccc(OC(F)F)nc2)cc(Nc2ccc3cc[nH]c3c2)n1 [Compound 126, 4-{[6-(difluoromethoxy)pyridin-3-yl]amino}-6-[(1H-indol-6-yl)amino]pyridine-2-carbonitrile] | 0.2 to 1 µM | – |
| N#Cc1cc(Nc2ccc(OCC(F)(F)F)nc2)cc(Nc2ccc3cc[nH]c3c2)n1 [Compound 127, 6-[(1H-indol-6-yl)amino]-4-{[6-(2,2,2-trifluoroethoxy)pyridin-3-yl]amino}pyridine-2-carbonitrile] | 0.2 to 1 µM | – |
| COc1cc(Nc2cc(C#N)nc(Nc3ccc4cc[nH]c4c3)c2)cnc1Cl [Compound 128, 4-[(6-chloro-5-methoxypyridin-3-yl)amino]-6-[(1H-indol-6-yl)amino]pyridine-2-carbonitrile] | 1 to 5 µM | – |
| N#Cc1cc(Nc2cncc(F)c2)cc(Nc2ccc3cc[nH]c3c2)n1 [Compound 129, 4-[(5-fluoropyridin-3-yl)amino]-6-[(1H-indol-6-yl)amino]pyridine-2-carbonitrile] | 1 to 5 µM | – |
| N#Cc1cc(Nc2ccc(C(F)(F)F)nc2)cc(Nc2ccc3cc[nH]c3c2)n1 [Compound 130, 6-[(1H-indol-6-yl)amino]-4-{[6-(trifluoromethyl)pyridin-3-yl]amino}pyridine-2-carbonitrile] | 0.2 to 1 µM | – |
| COc1ccc(Nc2cc(C#N)nc(Nc3ccc4cc[nH]c4c3)c2)cn1 [Compound 131, 6-[(1H-indol-6-yl)amino]-4-[(6-methoxypyridin-3-yl)amino]pyridine-2-carbonitrile] | 1 to 5 µM | – |
| CNC(=O)c1ccc(Nc2cc(C#N)nc(Nc3ccc4cc[nH]c4c3)c2)cc1F [Compound 132, 4-({2-cyano-6-[(1H-indol-6-yl)amino]pyridin-4-yl}amino)-2-fluoro-N-methylbenzamide] | 5 to 100 µM | – |
| N#Cc1cc(Nc2ccc(C(F)(F)F)c(Cl)c2)cc(Nc2ccc3cc[nH]c3c2)n1 [Compound 133, 4-{[3-chloro-4-(trifluoromethyl)phenyl]amino}-6-[(1H-indol-6-yl)amino]pyridine-2-carbonitrile] | 0.2 to 1 µM | – |
| N#Cc1cc(Nc2cc(Cl)cc(OC(F)(F)F)c2)cc(Nc2ccc3cc[nH]c3c2)n1 [Compound 134, 4-{[3-chloro-5-(trifluoromethoxy)phenyl]amino}-6-[(1H-indol-6-yl)amino]pyridine-2-carbonitrile] | 0.2 to 1 µM | – |

Second part, the compound after the results:

| EC50 (class symbols) | EC50 (numeric bound) | SMILES |
| --- | --- | --- |
| – | > 30 µM | COC1CCN(c2cc(C#N)nc(Nc3ccc4cc[nH]c4c3)c2)CC1 [Compound 103, 6-[(1H-indol-6-yl)amino]-4-(4-methoxypiperidin-1-yl)pyridine-2-carbonitrile] |
| – | > 30 µM | N#Cc1cc(N2CCC(F)(F)CC2)cc(Nc2ccc3cc[nH]c3c2)n1 [Compound 106, 4-(4,4-difluoropiperidin-1-yl)-6-[(1H-indol-6-yl)amino]pyridine-2-carbonitrile] |
| 1 to 5 µM | – | CCc1ccc(Nc2cc(C#N)nc(Nc3ccc4cc[nH]c4c3)c2)cn1 [Compound 111, 4-[(6-ethylpyridin-3-yl)amino]-6-[(1H-indol-6-yl)amino]pyridine-2-carbonitrile] |
| 1 to 5 µM | – | CC(C)CN1CCN(c2cc(C#N)nc(Nc3ccc4cc[nH]c4c3)c2)CC1 [Compound 113, 6-[(1H-indol-6-yl)amino]-4-[4-(2-methylpropyl)piperazin-1-yl]pyridine-2-carbonitrile] |
| 5 to 100 µM | – | N#Cc1cc(N2CCOCC2)cc(Nc2ccc3cc[nH]c3c2)n1 [Compound 114, 6-[(1H-indol-6-yl)amino]-4-(morpholin-4-yl)pyridine-2-carbonitrile] |
| 1 to 5 µM | – | N#Cc1cc(N2CCC(C(F)(F)F)CC2)cc(Nc2ccc3cc[nH]c3c2)n1 [Compound 118, 6-[(1H-indol-6-yl)amino]-4-[4-(trifluoromethyl)piperidin-1-yl]pyridine-2-carbonitrile] |
| 0.2 to 1 µM | – | N#Cc1cc(N2CCC(Oc3ccccc3)CC2)cc(Nc2ccc3cc[nH]c3c2)n1 [Compound 119, 6-[(1H-indol-6-yl)amino]-4-(4-phenoxypiperidin-1-yl)pyridine-2-carbonitrile] |
| 5 to 100 µM | – | N#Cc1cc(N2CCN(CC(F)(F)F)CC2)cc(Nc2ccc3cc[nH]c3c2)n1 [Compound 120, 6-[(1H-indol-6-yl)amino]-4-[4-(2,2,2-trifluoroethyl)piperazin-1-yl]pyridine-2-carbonitrile] |
| – | > 30 µM | CN1CCN(c2cc(C#N)nc(Nc3ccc4cc[nH]c4c3)c2)CC1 [Compound 121, 6-((1H-indol-6-yl)amino)-4-(4-methylpiperazin-1-yl)picolinonitrile] |
| 0.2 to 1 µM | – | CC(C)c1cncc(Nc2cc(C#N)nc(Nc3ccc4cc[nH]c4c3)c2)c1 [Compound 124, 6-[(1H-indol-6-yl)amino]-4-{[5-(propan-2-yl)pyridin-3-yl]amino}pyridine-2-carbonitrile] |

Source: US20240076285A1, “COMPOUNDS AND COMPOSITIONS FOR TREATING CONDITIONS ASSOCIATED WITH STING ACTIVITY” (IFM Due, Inc., priority 2020, published 2024)
